{
  "source": "patent US9186416B2",
  "about": "“Immunoconjugates, compositions for making them, and methods of making and use” (priority 2011, dated 2015)",
  "key": {"[1]": {"tested_on": "786-O cell lysate", "assay": "Dephosphorylation by 786-O cell lysate", "type": "in vitro ADME, human", "conditions": "100 μM compound, 786-O lysate 2 mg/mL protein, pH 5.5, 37° C.", "experimental": "786-O cells, as frozen pellets with an estimated quantity of 10^7 cells per vortexing tube, were resuspended and homogenized in 500 μL of lysis buffer (25 mM NaOAc, 1 mM EDTA, 0.25 M sucrose, 0.1% Triton X-100, pH 5.5). Homogenization involved vortex mixing for 30 sec, followed by a one min cooling on ice. For each tube, three vortex and cooling cycles were performed. Cell samples were then further mixed by shearing in a 19 gauge needle three times.\nFollowing homogenization, the DNA of the cell lysate was hydrolyzed using BENZONASE™ DNAse. Samples were first brought up in 1 mM MgSO4. After mixing, 2 μL of BENZONASE™ DNAse (neat) were added to each vial of lysate (4 μL/mL, v/v, final concentration). Samples were then stored at RT for 15 min and then cooled on ice. For this step, successful DNAse activity was evidenced by appearance of flocculent precipitate. Samples were then spun at maximum speed in a microcentrifuge for 5 min to remove cellular debris. Supernatant was frozen at −70° C. for later use. Protein concentration of the lysate was determined using Pierce BCA Protein Determination methodology (Thermo Scientific).\nA 2000 μM stock solution of the compound of formula (Ia) was prepared. Lysate was diluted to 2.1 mg/mL in lysate buffer. For reaction, 5 μL of the compound (Ia) stock was added to 95 μL of lysate. […]"}, "[2]": {"tested_on": "H226 cell lysates", "assay": "Dephosphorylation by H226 cell lysates", "type": "in vitro ADME, human", "conditions": "similar experiment"}},
  "data": [
    {"smiles": "Nc1ccc(C(=O)Nc2ccc3[nH]c(C(=O)N4C[C@@H](CCl)c5c4cc(OP(=O)(O)O)c4ccccc54)cc3c2)cc1", "note": "[compound (Ia)]", "values": [
      {"measurement": "time to complete dephosphorylation", "setting": "[1]", "result": "≤ 8", "unit": "h"},
      {"measurement": "time to complete dephosphorylation", "setting": "[2]", "result": "≤ 3", "unit": "h"}
    ]}
  ]
}
